This note sets out measurements from US5284856A, “Oncogene-encoded kinases inhibition using 4-H-1-benzopyran-4-one derivatives” (Hoechst Aktiengesellschaft, priority 1988, dated 1994).

Experiment [1] relates to T1, cAMP-dependent protein kinase.
T1 construct: purchased Sigma Chemical Co., St. Louis, Mo., USA
Description: 3',5'-cAMP-dependent protein kinase inhibition (catalytic sub-unit, kemptide substrate). Format: biochemical. Conditions: 40 μM ATP, 15 minutes at 30° C.; for inhibition at 45 µg/mL: pH 6.9, 45 μg/ml inhibitor, read-out: % inhibition of cAMP-dependent protein kinase at an inhibitor concentration of 45 μg/ml; for % inhibition of cAMP-dependent protein kinase at an inhibitor concentration of 45 μg/ml: 45 μg/ml inhibitor, pH 6.9, hydrochloride. On the procedure:
Assay for 3', 5'-cAMP-Dependent Protein Kinase Inhibition
The catalytic sub-unit of cAMP-dependent protein kinase (Sigma) was reconstituted as described by Sigma (Sigma Chemical Co., St. Louis, Mo., USA). The enzyme activity was measured with kemptide (Sigma) (Leu-Arg-Arg-Ala-Ser-Leu-Gly) as the substrate. The inhibitor was preincubated with the enzyme, substrate (190 μM), Mg^2+ (5 mM), 0.25 mg/ml of BSA and 3.75 mM of mercaptoethanol in 50 mM of MOPA (4-morpholinopropanesulfonic acid), pH 6.9. The reaction was initiated by adding γ-^32 P ATP (40 μM). After 15 minutes at 30° C., an aliquot amount was transferred to p81 ion exchange paper (2×2 cm; Whatman Paper Ltd., Great Britain), the paper was immersed in 75 mM H3 PO4, washed and dried, and the incorporation of ^32 P was determined by means of a liquid scintillation counter.

Another experiment deals with LXF 529. Description: SRC Tumor Test (implantation under renal capsule of nude mouse), bronchogenic carcinoma LXF 529. Format: in vivo, human tumor xenograft in nude mouse. Conditions: days 2-15. On the procedure: (§1) Single cell suspensions (from cell culture A 549 or disaggregated human tumor xenografts LXF 529) in Beriplast (Behringwerke AG) were diluted 1:2 with RPMI 1640 supplemented with 15% FCS to a final cell concentration of 10^7 cells/50 μl. This suspension was sucked quickly into 50 μglass capillaries (diameter 1.5 mm), of which the inner walls had been moistered with a thrombin/CaCl2 solution (500 units thrombin in 1 ml 40 mmol CaCl2).
(§2) After solidification of the cell-fibrin mixture (about 5 min at RT) the fibrin clot has been removed from the glass capillary into a petridish by air pressure. The fibrin clot was cut into 2 mm pieces (≈5×10^5 cells per piece) and the pieces were stored in RPMI 1640 supplemented with 15% FCS until implantation.
(§3) A single fibrin piece was transferred under the renal capsule of a nude mouse and, subsequently, two perpendicular diameters of the implanted piece were measured by microscope with an ocular micrometer (day 0). The tumor size was calculated according to
b=diameter perpendicular to a
The substance was given i.v. or p.o. daily on day 2-15 with the maximal tolerable dose (MTD) and a dose 2/3 of the MTD value according to the pretests. 5 mice/group were used.
(§4) On day 21 after implantation the animals were sacrificed, the kidney was exteriorized and the tumor size was measured again. The effectivity of the test drug was calculated from the tumor growth inhibition.
The relative tumor size VR was calculated according the formula [formula] Vt =tumor size at the end of experiment (day 21) V0 =tumor size as day of implantation
Subsequently the median relative tumor size of the treated group (VT) was related to the corresponding median relative tumor size of controls (VC) according to the formula [formula] The statistical significance (p 0.05) of the antitumoral effects was calculated using the Wilcoxon U test.
(In general: A xenograft is tissue or cells of one species grown in another, often human tumour cells in immunodeficient mice.)

The test system of another experiment is A 549. Description: SRC Tumor Test (implantation under renal capsule of nude mouse), bronchogenic carcinoma A 549. Type of experiment: in vivo. Conditions: days 2-15. On the procedure: as §1, §2, §3
b=diameter perpendicular to a […]
as §4
The relative tumor size VR was calculated according the formula [formula] […]

Structures can show the parent of a compound that is named as a salt.

Take `CN1CCC(c2c(O)cc(O)c3c(=O)cc(Cc4ccccc4Cl)oc23)C(O)C1` (racemic) [(2-chlorophenyl)methyl HCl (±)]: the inhibition at 45 µg/mL in experiment [1] was 69%.

`CCCc1cc(=O)c2c(O)cc(O)c(C3CCN(C)CC3O)c2o1` (single isomer, unassigned) [n-propyl HCl (-)]: in experiment [1], the inhibition at 45 µg/mL stood at 5%. In the case of `CN1CC[C@H](c2c(O)cc(O)c3c(=O)cc(-c4cccs4)oc23)[C@H](O)C1` (relative stereo) [2-thiophenyl (±), (±)-cis-5,7-dihydroxy-2-(2-thienyl)-8-[4-(3-hydroxy-1-methyl)piperidinyl]-4H-1-benzopyran-4-one], in experiment [1], the inhibition at 45 µg/mL came to 14%. Take `CN1CCC(c2c(O)cc(O)c3c(=O)cc(-c4ccccc4F)oc23)C(O)C1` (racemic) [2-fluorophenyl HCl (±)]: in experiment [1], the inhibition at 45 µg/mL amounted to 0%. Same read-out and setting: with `CN1CC[C@H](c2c(O)cc(O)c3c(=O)cc(-c4ccccc4Cl)oc23)[C@H](O)C1` (relative stereo) [2-chlorophenyl HCl (±), (±)-cis-5,7-dihydroxy-2-(2-chlorophenyl)-8-[4-(3-hydroxy-1-methyl)piperidinyl]-4H-1-benzopyran-4-one hydrochloride] the figure was 29%. In the case of `CN1CC[C@H](c2c(O)cc(O)c3c(=O)cc(-c4ccncc4)oc23)[C@H](O)C1` (relative stereo) [4-pyridyl HCl (±), (±)-cis-5,7-dihydroxy-2-(4-pyridyl)-8-[4-(3-hydroxy-1-methyl)piperidinyl]-4H-1-benzopyran-4-one hydrochloride], the inhibition at 45 µg/mL in experiment [1] was 12%. In the case of `CN1CC[C@H](c2c(O)cc(O)c3c(=O)cc(-c4cccnc4)oc23)[C@H](O)C1` (relative stereo) [3-pyridyl HCl (±), (±)-cis-5,7-dihydroxy-2-(3-pyridyl)-8-[4-(3-hydroxy-1-methyl)piperidinyl]-4H-1-benzopyran-4-one hydrochloride], the inhibition at 45 µg/mL in experiment [1] turned out to be 0%. For the compound `Cc1ccc(-c2cc(=O)c3c(O)cc(O)c([C@H]4CCN(C)C[C@H]4O)c3o2)cc1` (relative stereo) [4-methylphenyl HCl (±), (±)-cis-5,7-dihydroxy-2-(4-methylphenyl)-8-[4-(3-hydroxy-1-methyl)piperidinyl]-4H-1-benzopyran-4-one hydrochloride], in experiment [1], the inhibition at 45 µg/mL came out at 55%.

On to `CN1CCC(c2c(O)cc(O)c3c(=O)cc(-c4ccc(Cl)cc4)oc23)C(O)C1` (racemic) [4-chlorophenyl HCl (±)], for which the inhibition at 45 µg/mL in experiment [1] was determined as 37%. `CN1CCC(c2c(O)cc(O)c3c(=O)cc(-c4ccccc4Br)oc23)C(O)C1` (racemic) [2-bromophenyl (±)]: in experiment [1], the inhibition at 45 µg/mL turned out to be 63%. What is called T/C is the result in the treated group divided by that in the control group, in per cent. Turning to `CN1CC[C@H](c2c(O)cc(O)c3c(=O)cc(-c4cccc(Br)c4)oc23)[C@H](O)C1` (relative stereo) [Exmp. 17, (±)-cis-5,7-Dihydroxy-2-(3-bromophenyl)-8-[4-(3-hydroxy-1-methyl)piperidinyl]-4H-1-benzopyran-4-one hydrochloride], the T/C in the experiment with LXF 529 (LXF 529, 25 mg/kg/day i.v., n.s. = not significant (P > 0.05)) was found to be 81%; in the experiment with LXF 529 (LXF 529, 35 mg/kg/day i.v.), 67%; in the experiment on A 549 (A 549, 35 mg/kg/day i.v.), 70%; in the experiment on A 549 (A 549, 100 mg/kg/day p.o.), 73%. As for `CN1CCC(c2c(O)cc(O)c3c(=O)cc(-c4ccc(Br)cc4)oc23)C(O)C1` (racemic) [4-bromophenyl HCl (±)], the inhibition at 45 µg/mL in experiment [1] turned out to be 65%. In the case of `CN1CC[C@H](c2c(O)cc(O)c3c(=O)cc(-c4ccccc4)oc23)[C@H](O)C1` (single isomer, unassigned) [phenyl HCl (-), (-)-cis-5,7-dihydroxy-2-phenyl-8-[4-(3-hydroxy-1-methyl)piperidinyl]-4H-1-benzopyran-4-one hydrochloride], the “% inhibition of cAMP-dependent protein kinase at an inhibitor concentration of 45 μg/ml” value in experiment [1] was determined as 46%. On to `CN1CC[C@H](c2c(O)cc(O)c3c(=O)cc(-c4ccccc4)oc23)[C@H](O)C1` (relative stereo) [phenyl HCl (±), (±)-cis-5,7-dihydroxy-2-phenyl-8-[4-(3-hydroxy-1-methyl)piperidinyl]-4H-1-benzopyran-4-one hydrochloride], for which the inhibition at 45 µg/mL in experiment [1] was 48%. On the same count and under the same terms, with `CN1CC[C@H](c2c(O)cc(O)c3c(=O)cc(-c4ccccc4Cl)oc23)[C@H](O)C1` (single isomer, unassigned) [2-chlorophenyl HCl (+), (+)-cis-5,7-dihydroxy-2-(2-chlorophenyl)-8-[4-(3-hydroxy-1-methyl)piperidinyl]-4H-1-benzopyran-4-one hydrochloride] the figure was 27%.

In the case of `CN1CC[C@H](c2c(O)cc(O)c3c(=O)cc(-c4ccccc4Cl)oc23)[C@H](O)C1` (single isomer, unassigned) [Exmp. 9, (-)-cis-5,7-Dihydroxy-2-(2-chlorophenyl)-8-[4-(3-hydroxy-1-methyl)piperidinyl]-4H-1-benzopyran-4-one hydrochloride], the T/C in the experiment on LXF 529 (LXF 529, 2 mg/kg/day i.v.) is listed as 59%; in the experiment with LXF 529 (LXF 529, 4 mg/kg/day i.v.), 51%.

Consider `CCCc1cc(=O)c2c(O)cc(O)c(C3CCN(C)CC3O)c2o1` (racemic) [n-propyl HCl (±)], for which, in experiment [1], the inhibition at 45 µg/mL was found to be 0%. As to `CN1CC[C@H](c2c(O)cc(O)c3c(=O)cc(-c4ccc5ccccc5c4)oc23)[C@H](O)C1` (relative stereo) [2-naphthyl HCl (±), (±)-cis-5,7-dihydroxy-2-(2-naphthyl)-8-[4-(3-hydroxy-1-methyl)piperidinyl]-4H-1-benzopyran-4-one hydrochloride], the inhibition at 45 µg/mL in experiment [1] was determined as 0%. Regarding `CN1CCC(c2c(O)cc(O)c3c(=O)cc(-c4ccc(-c5ccccc5)cc4)oc23)C(O)C1` (racemic) [4-biphenyl HCl (±)], the inhibition at 45 µg/mL in experiment [1] was determined as 37%. On to `CN1CC[C@H](c2c(O)cc(O)c3c(=O)cc(-c4ccccc4)oc23)[C@H](O)C1` (single isomer, unassigned) [phenyl HCl (+), (+)-cis-5,7-dihydroxy-2-phenyl-8-[4-(3-hydroxy-1-methyl)piperidinyl]-4H-1-benzopyran-4-one hydrochloride], for which, in experiment [1], the “% inhibition of cAMP-dependent protein kinase at an inhibitor concentration of 45 μg/ml” value came to 13%. `CN1CCC(c2c(O)cc(O)c3c(=O)cc(-c4ccc(F)cc4)oc23)C(O)C1` (racemic) [4-fluorophenyl HCl (±)]: in experiment [1], the inhibition at 45 µg/mL was 25%. On the same count and under the same terms, as for `CN1CC[C@H](c2c(O)cc(O)c3c(=O)cc(-c4ccccn4)oc23)[C@H](O)C1` (relative stereo) [2-pyridyl HCl (±), (±)-cis-5,7-dihydroxy-2-(2-pyridyl)-8-[4-(3-hydroxy-1-methyl)piperidinyl]-4H-1-benzopyran-4-one hydrochloride], the figure is 0%. For `CN1CC[C@H](c2c(O)cc(O)c3c(=O)cc(-c4ccc(O)cc4)oc23)[C@H](O)C1` (relative stereo) [Exmp. 19, (±)-cis-5,7-Dihydroxy-2-(4-hydroxyphenyl)-8-[4-(3-hydroxy-1-methyl)piperidinyl]-4H-1-benzopyran-4-one], the T/C is on record as 98% with LXF 529 (LXF 529, 100 mg/kg/day i.v., n.s. = not significant (P > 0.05)) and 80% with LXF 529 (LXF 529, 150 mg/kg/day i.v.). `CN1CC[C@H](c2c(O)cc(O)c3c(=O)cc(-c4ccccn4)oc23)[C@H](O)C1` (single isomer, unassigned) [2-pyridyl HCl (-), (-)-cis-5,7-dihydroxy-2-(2-pyridyl)-8-[4-(3-hydroxy-1-methyl)piperidinyl]-4H-1-benzopyran-4-one hydrochloride]: the inhibition at 45 µg/mL in experiment [1] is 6%. For `CCc1cc(=O)c2c(O)cc(O)c(C3CCN(C)CC3O)c2o1` (racemic) [ethyl HCl (±)], the inhibition at 45 µg/mL in experiment [1] came to 0%.
